Measured values taken from the NIST ThermoML archive (doi:10.1021/je2009413).

How the values were obtained:
[1] = osmotic coefficient (dimensionless); mn = molality of the nth substance listed, in mol/kg; settings: 298.15 K, Liquid, isopiestic method
[2] = mean ionic activity coefficient (dimensionless); mn = molality of the nth substance listed, in mol/kg; settings: 298.15 K, Liquid, Isopiestic method

CCC(C)[N+](CC)(CC)CC.[I-] (stereo not drawn) [N,N,N-triethyl-2-butanaminium iodide] + O
Settings	mean ionic activity coefficient, [2]	osmotic coefficient, [1]
m1 = 0.0355	0.7342	0.868
m1 = 0.0419	0.7111	0.857
m1 = 0.0466	0.6955	0.849
m1 = 0.0596	0.6571	0.833
m1 = 0.0659	0.6405	0.827
m1 = 0.0701	0.6301	0.82
m1 = 0.078	0.6116	0.814
m1 = 0.0914	0.5833	0.801
m1 = 0.0985	0.5696	0.794
m1 = 0.1038	0.5599	0.79
m1 = 0.1115	0.5465	0.784
m1 = 0.1743	0.4605	0.728
m1 = 0.1756	0.459	0.728
m1 = 0.2078	0.4262	0.704
m1 = 0.2438	0.3955	0.676
m1 = 0.248	0.3922	0.673
m1 = 0.2939	0.3602	0.651
m1 = 0.338	0.3347	0.621
m1 = 0.3717	0.3178	0.616
m1 = 0.3901	0.3094	0.602
m1 = 0.431	0.2924	0.578
m1 = 0.4744	0.2766	0.57
m1 = 0.5204	0.2619	0.554
m1 = 0.5785	0.2458	0.538
m1 = 0.624	0.2347	0.525
m1 = 0.665	0.2257	0.52
m1 = 0.6928	0.22	0.508
m1 = 0.8	0.2011	0.49
m1 = 0.847	0.194	0.486
m1 = 0.9185	0.1842	0.48
m1 = 0.978	0.177	0.468
m1 = 1.091	0.1651	0.456
m1 = 1.19	0.1562	0.445
m1 = 1.306	0.1471	0.433
m1 = 1.407	0.1402	0.427
m1 = 1.545	0.132	0.413
m1 = 1.715	0.1234	0.411
m1 = 1.891	0.1159	0.407
m1 = 1.928	0.1144	0.412
m1 = 1.988	0.1122	0.407
m1 = 2.019	0.111	0.408
m1 = 2.09	0.1086	0.417
m1 = 2.172	0.1059	0.413
m1 = 2.413	0.0987	0.43
